Source: US10935552B2, “Aie luminogens for visualization and treatment of cancer” (THE HONG KONG UNIVERSITY OF SCIENCE AND TECHNOLOGY, priority 2015, dated 2021)

Key:
[1] = tested on: MDA-MB-231 cells; experiment: Cell imaging under fluorescent microscope, MDA-MB-231 cells; format: cell-based; conditions: 200 nM
Procedure: (§1) Cell culture: HeLa cells were cultured in the MEM containing 10% FBS and 1% antibiotics (100 units/mL penicillin and 100 µg/mL streptomycin) in a 5% CO2 humidity incubator at 37° C. COS-7, MDA-MB-231, MCF-7, and MDCK-II cells were culture in the DMEM containing 10% FBS and antibiotics (100 units/mL penicillin and 100 µg/mL streptomycin) in a 5% CO2 humidity incubator at 37° C.
(§2) Cell imaging: two different kind of cells were grown overnight on a 35 mm petri dish with a cover slip. The live cells were incubated with 200 nM of TPE-IQ-2O for 1, 5, 10, and 20 mins. In a typical experiment, 2 μL of a 10 mM stock solution of TPE-IQ-2O in DMSO was diluted to 2 mL with cell culture medium, followed by further dilution to desired concentration. The cells were imaged under a fluorescent microscope (BX41 Microscope) using the same excitation and emission filters: excitation filter=400-440 nm, dichroic mirror=455 nm, and emission filter=465 nm long pass.
Two different kinds of cells were grown overnight on a 35 mm petri dish with a cover slip. The live cells were incubated with 200 nM of TPE-IQ-2O for 20, 10, 5, and 1 mins. […] Condition: 200 nM (Filter: both close; Channel 5; EX: 400-440 nm; Exposure time: bright field: 1000 ms Fluorescence: 1000 ms.

[2] = tested on: MDCK-II cells; experiment: Cell imaging under fluorescent microscope, MDCK-II normal cells; format: cell-based, Canine; conditions: MDCK-II stained alone, 200 nM, 10 mins
Procedure: as §1, §2
Two different kinds of cells were grown overnight on a 35 mm petri dish with a cover slip. The live cells were incubated with 200 nM of TPE-IQ-2O for 10 mins. […] Condition: 200 nM 10 mins (Filter: both close; Channel 5; EX: 400-440 nm; Exposure time: bright field: 1000 ms Fluorescence: 1000 ms.

[3] = tested on: HepG2 cells; experiment: Cell imaging, HepG2 cells; format: cell-based, human; conditions: HepG2, 200 nM, 20 and 10 mins
Procedure: (§3) The PC-9, HepG2, and HCC827 cells were grown overnight on a 35 mm petri dish with a cover slip. The live cells were incubated with 200 nM of TPE-IQ-2O for 20 and 10 mins. In all the experiments, the cancer cells are fluorescent in solely staining.
(§4) HepG2 cells (human hepatocarcinoma cell line), PC-9 cells (human lung adenocarcinoma cell line), Hela cells (human cervical carcinoma cell line), and LX2 cells (normal cell, human hepatic stellate cell line) were stained with 200 nM DPA-IQ for 10 min. Images were taken under the same equipment settings. Scale bar: 30 μm. Excitation wavelength: 400-440 nm.

[4] = tested on: HCC827 cells; experiment: Cell imaging, HCC827 cells; format: cell-based; conditions: HCC827, 200 nM, 20 and 10 mins
Procedure: as §3

[5] = tested on: LX2 cells; experiment: Cell imaging, LX2 normal cells; format: cell-based, human; conditions: LX2, 200 nM, 20 and 10 mins
Procedure: The LX2 cells were grown overnight on a 35 mm petri dish with a cover slip. The live cells were incubated with 200 nM of TPE-IQ-2O for 20 and 10 mins.
as §4

[6] = tested on: mitochondria; experiment: Co-staining with commercial organelle trackers in HeLa cells (mitochondria staining); format: cell-based, human; conditions: HeLa, 200 nM with Mito-tracker red/Lyso-tracker red/DAPI, 20 mins
Procedure: The HeLa cells were grown overnight on a 35 mm petri dish with a cover slip. Then the HeLa cells were stained with 200 nM TPE-IQ-2O and Mito-tracker red (50 nM)/Lyso-tracker red (50 nM)/DAPI (500 nM) for 20 mins.
The DMSO solution of DPA-IQ was almost non-emissive while the aggregation state powder of this material emits strong green luminescence upon the UV excitation.
The commercially available MitoTracker Red FM is co-stained as a control together with Naph-IQ.

## CCC[n+]1cc2ccc(C(=C(c3ccc(OC)cc3)c3ccc(OC)cc3)c3ccccc3)cc2c(-c2ccccc2)c1-c1ccccc1 [TPE-IQ-2O, 6-(2,2-bis(4-methoxyphenyl)-1-phenylvinyl)-3,4-diphenyl-2-propylisoquinolin-2-ium]
[1]; MDA-MB-231 and COS-7 co-cultured and stained together
  Fluorescence in co-culture: fluorescence only from the MDA-MB-231 cancer cell
[1]; MDA-MB-231 stained alone, 1-20 min
  Fluorescence of stained cells: fluorescent
[2]
  Fluorescence of stained cells: not stained
[3]
  Fluorescence of stained cells: fluorescent
[4]
  Fluorescence of stained cells: fluorescent
[5]
  Fluorescence of stained cells: no obvious fluorescence
[6]
  Organelle selectivity: can selectively target the mitochondria
